The target of this test is KRAS G12C (Homo sapiens, UniProt P01116, G12C). Kind of test: GDP-GTP exchange assay (fluorescence based guanine nucleotide exchange, bodipy-GDP for GppNHp, SOS1). The test is classed as biochemical. Particulars: bodipy-loaded KRAS G12C, 2 hours pre-incubation with inhibitor, read-out: G12C_exchange (KRAS_G12C exchange assay IC50). On the procedure: The inhibitor potency of the exemplified compounds was determined in a fluorescence based guanine nucleotide exchange assay, which measures the exchange of bodipy-GDP (fluorescently labeled GDP) for GppNHp (Non-hydrolyzable GTP analog) to generate the active state of KRAS in the presence of SOS1 (guanine nucleotide exchange factor). Inhibitors were serially diluted in DMSO and a volume of 0.1 μL was transferred to the wells of a black low volume 384-well plate. 5 μL/well volume of bodipy-loaded KRAS G12C diluted to 5 nM in assay buffer (25 mM Hepes pH 7.5, 50 mM NaCl, 10 mM MgCl2 and 0.01% Brij-35) was added to the plate and pre-incubated with inhibitor for 2 hours at ambient temperature. Appropriate controls (enzyme with no inhibitor or with a G12C inhibitor (AMG-510)) were included on the plate. The exchange was initiated by the addition of a 5 μL/well volume containing 1 mM GppNHp and 300 nM SOS1 in assay buffer. The 10 μL/well reaction concentration of the bodipy-loaded KRAS G12C, GppNHp, and SOS1 were 5-25 nM, 500 uM, and 150 nM, respectively. The reaction plates were incubated at ambient temperature for 2 hours, a time estimated for complete GDP-GTP exchange in the absence of inhibitor. For the KRAS G12D and G12V mutants, similar guanine nucleotide exchange assays were used with 2.5 nM as final concentration for the bodipy loaded KRAS proteins and with 4 hours and 3 hours incubation after adding GppNHp-SOS1 mixture for G12D and G12V, respectively. A cyclic peptide described to selectively bind G12D mutant (Sakamoto et al., BBRC 484.3 (2017), 605-611) or internal compounds with confirmed binding were used as positive controls in the assay plates. Fluorescence intensities were measured on a PheraStar plate reader instrument (BMG Labtech) with excitation at 485 nm and emission at 520 nm.
Sequence of KRAS G12C (P01116 1-188 isoform P01116-2 G12C): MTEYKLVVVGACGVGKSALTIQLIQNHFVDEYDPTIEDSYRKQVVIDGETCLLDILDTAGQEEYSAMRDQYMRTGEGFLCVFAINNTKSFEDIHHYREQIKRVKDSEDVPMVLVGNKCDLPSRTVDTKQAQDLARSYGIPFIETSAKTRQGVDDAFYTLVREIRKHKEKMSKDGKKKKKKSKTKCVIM
Either GraphPad prism or XLfit was used to analyze the data. The IC50 values were derived by fitting the data to a four parameter logistic equation producing a sigmoidal dose-response curve with a variable Hill coefficient. Prism equation: Y=Bottom+(Top−Bottom)/(1+10^((Log IC50−X)*Hill slope)); XLfit equation: Y=(A+((B−A)/(1+((X/C)^D)))) where X is the logarithm of inhibitor concentration and Y is the response.

Usually IC50 stands for the point on the concentration scale where inhibition reaches its midpoint. For `C=CC(=O)N1CCC(n2c(=O)c(=O)n(-c3c(CC)cccc3CC)c3nc(-c4ccccc4F)c(Cl)cc32)CC1` [Example 1, 1-(1-acryloylpiperidin-4-yl)-7-chloro-4-(2,6-diethylphenyl)-6-(2-fluorophenyl)-1,4-dihydropyrido[2,3-b]pyrazine-2,3-dione], the IC50 lay within 5000 to 10000 nM. In the case of `C=CC(=O)N1CCC(n2c(=O)c(=O)n(-c3c(CC)cccc3CC)c3nc(-c4c(O)cccc4F)c(Cl)cc32)CC1` [Example 2, 1-(1-acryloylpiperidin-4-yl)-7-chloro-4-(2,6-diethylphenyl)-6-(2-fluoro-6-hydroxyphenyl)-1,4-dihydropyrido[2,3-b]pyrazine-2,3-dione], the IC50 is 1000 to 5000 nM. In the case of `C=CC(=O)N1CC(Cn2c(=O)c(=O)n(-c3c(C(C)C)cccc3C(C)C)c3nc(-c4ccccc4F)c(Cl)cc32)C1` [Example 3, 1-((1-acryloylazetidin-3-yl)methyl)-7-chloro-4-(2,6-diisopropylphenyl)-6-(2-fluorophenyl)-1,4-dihydropyrido[2,3-b]pyrazine-2,3-dione], the half-inhibitory concentration (IC50) fell in the range of 100 to 1000 nM.

Take `C=CC(=O)N1CC(Cn2c(=O)c(=O)n(-c3c(CC)cccc3CC)c3nc(-c4ccccc4F)c(Cl)cc32)C1` [Example 4, 1-((1-acryloylazetidin-3-yl)methyl)-7-chloro-4-(2,6-diethylphenyl)-6-(2-fluorophenyl)-1,4-dihydropyrido[2,3-b]pyrazine-2,3-dione]: the IC50 was 100 to 1000 nM.

As to `C=CC(=O)N1CC(Cn2c(=O)c(=O)n(-c3c(C(C)C)cccc3C(C)C)c3nc(-c4cccc5ccccc45)c(Cl)cc32)C1` [Example 6, 1-((1-acryloylazetidin-3-yl)methyl)-7-chloro-4-(2,6-diisopropylphenyl)-6-(1-naphthyl)-1,4-dihydropyrido[2,3-b]pyrazine-2,3-dione], the IC50 is 1000 to 5000 nM. The figure for `C=CC(=O)N1CC(F)(Cn2c(=O)c(=O)n(-c3c(C)ccnc3C(C)C)c3nc(-c4c(F)ccc(O)c4O)c(Cl)cc32)C1` [Example 26, 1-((1-acryloyl-3-fluoroazetidin-3-yl)methyl)-7-chloro-6-(6-fluoro-2,3-dihydroxyphenyl)-4-(2-isopropyl-4-methylpyridin-3-yl)-1,4-dihydropyrido[2,3-b]pyrazine-2,3-dione] is 100 to 1000 nM. The same measure for `C=CC(=O)N1CC(F)(Cn2c(=O)c(=O)n(-c3c(C)ccnc3C(C)C)c3nc(-c4cccc5cn[nH]c45)c(Cl)cc32)C1` [Example 29, 1-((1-acryloyl-3-fluoroazetidin-3-yl)methyl)-7-chloro-6-(1H-indazol-7-yl)-4-(2-isopropyl-4-methylpyridin-3-yl)-1,4-dihydropyrido[2,3-b]pyrazine-2,3-dione]: 100 to 1000 nM. Regarding `C=CC(=O)N1CC(F)(Cn2c(=O)c(=O)n(-c3c(C)ccnc3C(C)C)c3nc(-c4cccc5nn[nH]c45)c(Cl)cc32)C1` [Example 30, 1-((1-acryloyl-3-fluoroazetidin-3-yl)methyl)-6-(1H-benzo[d][1,2,3]triazol-7-yl)-7-chloro-4-(2-isopropyl-4-methylpyridin-3-yl)-1,4-dihydropyrido[2,3-b]pyrazine-2,3-dione], the IC50 fell in the range of 100 to 1000 nM. The figure for `C=CC(=O)N1CC(F)(Cn2c(=O)c(=O)n(-c3c(C)ccnc3C(C)C)c3nc(-c4cccnc4N)c(Cl)cc32)C1` [Example 31, 1-((1-acryloyl-3-fluoroazetidin-3-yl)methyl)-6-(2-aminopyridin-3-yl)-7-chloro-4-(2-isopropyl-4-methylpyridin-3-yl)-1,4-dihydropyrido[2,3-b]pyrazine-2,3-dione] is 100 to 1000 nM; for `C=CC(=O)N1CC(F)(Cn2c(=O)c(=O)n(-c3c(C)ccnc3C(C)C)c3nc(-c4cccc5ccc(=O)[nH]c45)c(Cl)cc32)C1` [Example 32, 1-((1-acryloyl-3-fluoroazetidin-3-yl)methyl)-7-chloro-4-(2-isopropyl-4-methylpyridin-3-yl)-6-(2-oxo-1,2-dihydroquinolin-8-yl)-1,4-dihydropyrido[2,3-b]pyrazine-2,3-dione] it is 100 to 1000 nM. With `C=CC(=O)N1CC(Cn2c(=O)c(=O)n(-c3c(C)ccnc3C(C)C)c3nc(-c4ccccc4F)c(Cl)cc32)(OC)C1` [Example 41, 1-((1-acryloyl-3-methoxyazetidin-3-yl)methyl)-6-(2-fluorophenyl)-7-chloro-4-(2-isopropyl-4-methylpyridin-3-yl)-1,4-dihydropyrido[2,3-b]pyrazine-2,3-dione], the IC50 was in the range of 100 to 1000 nM.

`C=CC(=O)N1CC(O)(Cn2c(=O)c(=O)n(-c3c(C)ccnc3C(C)C)c3nc(-c4ccccc4F)c(Cl)cc32)C1` [Example 43, 1-((1-acryloyl-3-hydroxyazetidin-3-yl)methyl)-7-chloro-6-(2-fluorophenyl)-4-(2-isopropyl-4-methylpyridin-3-yl)-1,4-dihydropyrido[2,3-b]pyrazine-2,3-dione]: the IC50 lay within 100 to 1000 nM. The figure for `C=CC(=O)N1CC(O)(Cn2c(=O)c(=O)n(-c3c(C)ccnc3C(C)C)c3nc(-c4c(F)ccc(F)c4O)c(Cl)cc32)C1` [Example 44, 1-((1-acryloyl-3-hydroxyazetidin-3-yl)methyl)-7-chloro-6-(3,6-difluoro-2-hydroxyphenyl)-4-(2-isopropyl-4-methylpyridin-3-yl)-1,4-dihydropyrido[2,3-b]pyrazine-2,3-dione] is 100 to 1000 nM. Consider `C=CC(=O)N1CC(O)(Cn2c(=O)c(=O)n(-c3c(C)ccnc3C(C)C)c3nc(-c4c(O)cc(C)cc4F)c(Cl)cc32)C1` [Example 46, 1-((1-acryloyl-3-hydroxyazetidin-3-yl)methyl)-7-chloro-6-(2-fluoro-6-hydroxy-4-methylphenyl)-4-(2-isopropyl-4-methylpyridin-3-yl)-1,4-dihydropyrido[2,3-b]pyrazine-2,3-dione], for which the IC50 was in the range of 100 to 1000 nM. Take `[2H]C([2H])(n1c(=O)c(=O)n(-c2c(C)ccnc2C(C)C)c2nc(-c3c(O)cc(C)cc3F)c(Cl)cc21)C1(F)CN(C(=O)C=C)C1` [Example 48, 1-((1-acryloyl-3-fluoroazetidin-3-yl)methyl-d2)-7-chloro-6-(2-fluoro-6-hydroxy-4-methylphenyl)-4-(2-isopropyl-4-methylpyridin-3-yl)-1,4-dihydropyrido[2,3-b]pyrazine-2,3-dione]: the IC50 was not above 100 nM. Regarding `[2H]C([2H])(n1c(=O)c(=O)n(-c2c(C)ccnc2C(C)C)c2nc(-c3c(O)cccc3Cl)c(Cl)cc21)C1(F)CN(C(=O)C=C)C1` [Example 49, 1-((1-acryloyl-3-fluoroazetidin-3-yl)methyl-d2)-7-chloro-6-(2-chloro-6-hydroxyphenyl)-4-(2-isopropyl-4-methylpyridin-3-yl)-1,4-dihydropyrido[2,3-b]pyrazine-2,3-dione], the IC50 is not above 100 nM. `[2H]C([2H])(n1c(=O)c(=O)n(-c2c(C)ccnc2C(C)C)c2nc(-c3c(O)cccc3Cl)c(Cl)cc21)C1(F)CN(C(=O)C(=C)F)C1` [Example 50, 7-chloro-6-(2-chloro-6-hydroxyphenyl)-1-((3-fluoro-1-(2-fluoroacryloyl)azetidin-3-yl)methyl-d2)-4-(2-isopropyl-4-methylpyridin-3-yl)-1,4-dihydropyrido[2,3-b]pyrazine-2,3-dione]: the IC50 is not above 100 nM.

For the origin of these results see patent US11767320B2, “Bicyclic dione compounds as inhibitors of KRAS” (INCYTE CORPORATION, priority 2020, dated 2023).
